We go through 16 compounds from US20250228239A1, “MOLECULES HAVING PESTICIDAL UTILITY, AND INTERMEDIATES, COMPOSITIONS, AND PROCESSES, RELATED THERETO” (priority 2024, published 2025).

Common to all, as to assay type: in vivo
In data set [1] the test system is Beet Armyworm (Spodoptera exigua, LAPHEG). Briefly: Bioassays on Beet Armyworm (BAW), 128-well diet tray assay. The following applies: Spodoptera exigua; for mortality at 50 µg/cm2: 168 h, second instar larvae, 50 μg/cm^2 of test molecule on artificial diet, 25° C., five to seven days, average of eight wells, read-out: BAW % Control (or Mortality) rating. An outline of the steps:
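Larvae at second instar are exposed on dried, compound-treated diet (50 μg/cm^2, delivered in 90:10 acetone-water) in eight replicate wells. After five to seven days at 25° C., 14:10 light-dark, percent mortality in each well is scored and the eight wells averaged.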

The subject of data set [2] is Cabbage Looper (Trichoplusia ni, TRIPNI). Briefly: Bioassays on Cabbage Looper (CL), 128-well diet tray assay. The settings on record: Trichoplusia ni; for mortality at 50 µg/cm2: 168 h, second instar larvae, 50 μg/cm^2 of test molecule on artificial diet, 25° C., five to seven days, average of eight wells, read-out: CL % Control (or Mortality) rating. An outline of the steps:
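Second-instar larvae (1–5 per well) placed on artificial diet surface-treated with 50 μg/cm^2 test molecule applied in 90:10 acetone-water and dried. Held at 25° C., 14:10 light-dark, for five to seven days. Percent mortality scored per well and averaged over eight wells.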

For data set [3], the system named is Yellow Fever Mosquito (Aedes aegypti, AEDSAE). The following applies: for YFM rating: Table ABC / ABC-DP rating; for YFM % Control (or Mortality) rating: about 1 day-old larvae, 4000 ppm master solution diluted with 90:10 water/acetone, 15 μL per well plus 220 μL larval mixture, 3 days. An outline of the steps:
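Compounds from DMSO master plates (4000 ppm stock) diluted in 90:10 water/acetone, then dispensed into six replicate plates and infested with ~1-day-old Aedes aegypti larvae in liver-powder water. Held covered at room temperature for 3 days; each well scored for larval mortality and graded on a rating scale.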

[4] abbreviates: Beet Armyworm, Table ABC / ABC-DP rating, read-out: BAW rating.
Setting [5] is: Cabbage Looper, Table ABC / ABC-DP rating, read-out: CL rating.
Setting [6] is: Beet Armyworm, rating class, read-out: BAW.
Where [7] appears, read: Cabbage Looper, rating class, read-out: CL.
Setting [8] is: Yellow Fever Mosquito, rating class.
Setting [9] is: Table ABC: Biological Results, species BAW, read-out: BAW.
[10] abbreviates: Table ABC: Biological Results, species CL, read-out: CL.
[11] abbreviates: Table ABC: Biological Results, species YFM.

Where two headings read alike, the source gives them in different places.

Usually mortality stands for the percentage killed.

Consider `N#CCC(=O)N(CCF)c1c(F)ccc(NC(=O)c2cc(NC(=O)[C@H]3[C@H](c4ccc(F)c(C(F)(F)F)c4)C3(Cl)Cl)ccc2Cl)c1F` [F1823, 2-Chloro-N-(3-(2-cyano-N-(2-fluoroethyl)acetamido)-2,4-difluorophenyl)-5-((1R,3R)-2,2-dichloro-3-(4-fluoro-3-(trifluoromethyl)phenyl)cyclopropane-1-carboxamido)benzamide], for which the pest or weed control at 50 µg/cm2 in data set [1] (setting [4]) and in data set [2] (setting [5]) was 50 to 100% throughout. Also, the YFM rating result in data set [3] (Yellow Fever Mosquito) is on record as “A (80–100)”.

For the compound `CC(=O)N(C)c1c(F)ccc(NC(=O)c2cc(NC(=O)[C@H]3[C@H](c4ccc(F)c(C(F)(F)F)c4)C3(Cl)Cl)ccc2Cl)c1F` [F1506, 2-Chloro-5-((1R,3R)-2,2-dichloro-3-(4-fluoro-3-(trifluoromethyl)phenyl)cyclopropane-1-carboxamido)-N-(2,4-difluoro-3-(N-methylacetamido)phenyl)benzamide], the pest or weed control at 50 µg/cm2 in data set [1] (setting [6]) and in data set [2] (setting [7]) was 50 to 100% in each case. The YFM result in data set [3] (setting [8]) is recorded as “A (80–100)”.

In the case of `CCOC(C)(C)C(=O)Nc1c(F)ccc(NC(=O)c2cc(NC(=O)[C@H]3[C@H](c4ccc(F)c(C(F)(F)F)c4)C3(Cl)Cl)ccc2Cl)c1F` [F1603, 2-Chloro-5-((1R,3R)-2,2-dichloro-3-(4-fluoro-3-(trifluoromethyl)phenyl)cyclopropane-1-carboxamido)-N-(3-(2-ethoxy-2-methylpropanamido)-2,4-difluorophenyl)benzamide], the pest or weed control at 50 µg/cm2 in data set [1] (setting [6]) and in data set [2] (setting [7]) was 50 to 100% throughout. Moreover, the YFM result in data set [3] (setting [8]) is “A (80–100)”.

Turning to `O=C(NNCCC(F)(F)F)c1cc(NC(=O)[C@H]2[C@H](c3cc(Cl)cc(Cl)c3)C2(Cl)Cl)ccc1Cl` (relative stereo) [F2550, trans-2,2-Dichloro-N-(4-chloro-3-(2-(3,3,3-trifluoropropyl)hydrazine-1-carbonyl)phenyl)-3-(3,5-dichlorophenyl)cyclopropane-1-carboxamide], the pest or weed control at 50 µg/cm2 in data set [1] (setting [4]) lay in the range of 0 to 50%; in data set [2] (setting [5]), 50 to 100%. The YFM rating entry in data set [3] (Yellow Fever Mosquito) is listed as “B (More than 0 – Less than 80)”.

Take `CCCC(OCC)C(=O)Nc1c(F)ccc(NC(=O)c2cc(NC(=O)[C@H]3[C@H](c4ccc(F)c(C(F)(F)F)c4)C3(Cl)Cl)ccc2Cl)c1F` (stereo partly drawn) [F1759, 2-Chloro-5-((1R,3R)-2,2-dichloro-3-(4-fluoro-3-(trifluoromethyl)phenyl)cyclopropane-1-carboxamido)-N-(3-(2-ethoxypentanamido)-2,4-difluorophenyl)benzamide]: the pest or weed control at 50 µg/cm2 in data set [1] (setting [6]) and in data set [2] (setting [7]) was 50 to 100% in each case. Further, the YFM result in data set [3] (setting [8]) is on record as “A (80–100)”.

Turning to `CN(N=CCC(F)(F)F)C(=O)c1cc(NC(=O)[C@H]2[C@H](c3cc(Cl)cc(Cl)c3)C2(Cl)Cl)ccc1Cl` (relative stereo) [F3009, trans-2,2-dichloro-N-(4-chloro-3-(1-methyl-2-(3,3,3-trifluoropropylidene)hydrazine-1-carbonyl)phenyl)-3-(3,5-dichlorophenyl)cyclopropane-1-carboxamide], the mortality at 50 µg/cm2 in data set [1] and in data set [2] was 50 to 100% in each case. Besides, the pest or weed control at 50 µg/cm2 in data set [1] (setting [4]) and in data set [2] (setting [5]) was 50 to 100% each time. The YFM rating result in data set [3] (Yellow Fever Mosquito) is “A (80–100)”. Also, the “YFM % Control (or Mortality) rating” value in data set [3] is reported as “A (80–100)”.

For `Cl.NNC(=O)c1cc(NC(=O)[C@H]2[C@H](c3cc(Cl)cc(Cl)c3)C2(Cl)Cl)ccc1Cl` (relative stereo) [F2567, trans-2,2-dichloro-N-(4-chloro-3-(hydrazinecarbonyl)phenyl)-3-(3,5-dichlorophenyl)cyclopropane-1-carboxamide hydrochloride], the mortality at 50 µg/cm2 in data set [1] and in data set [2] was 50 to 100% throughout. Moreover, the pest or weed control at 50 µg/cm2 in data set [1] (setting [4]) and in data set [2] (setting [5]) was 50 to 100% in each case. Also, the YFM rating result in data set [3] (Yellow Fever Mosquito) was “A (80–100)”. For the same compound, in data set [3], the “YFM % Control (or Mortality) rating” value is “A (80–100)”.

With `O=C(NCC1CC1)NNC(=O)c1cc(NC(=O)[C@H]2[C@H](c3cc(Cl)cc(Cl)c3)C2(Cl)Cl)ccc1Cl` (relative stereo) [F2538, trans-2-(2-Chloro-5-(2,2-dichloro-3-(3,5-dichlorophenyl)cyclopropane-1-carboxamido)benzoyl)-N-(cyclopropylmethyl)hydrazine-1-carboxamide], the pest or weed control at 50 µg/cm2 in data set [1] (setting [4]) and in data set [2] (setting [5]) was 50 to 100% in each case. Further, the YFM rating result in data set [3] (Yellow Fever Mosquito) was “A (80–100)”.

As to `O=C(NCC(F)(F)F)c1cc(NC(=O)[C@H]2[C@@H](c3cc(C(F)(F)F)cc(Cl)c3F)C2(Cl)Cl)ccc1Cl` (relative stereo) [F2013, cis-2-Chloro-5-(2,2-dichloro-3-(3-chloro-2-fluoro-5-(trifluoromethyl)phenyl)cyclopropane-1-carboxamido)-N-(2,2,2-trifluoroethyl)benzamide], the pest or weed control at 50 µg/cm2 in data set [1] (setting [4]) and in data set [2] (setting [5]) was 50 to 100% each time. The YFM rating result in data set [3] (Yellow Fever Mosquito) is recorded as “A (80–100)”.

With `O=C(Nc1ccc(F)cc1F)c1cc(NC(=O)[C@H]2[C@@H](c3cc(F)cc(Br)c3F)C2(Cl)Cl)ccc1Cl` (relative stereo) [F1094, cis-5-(3-(3-Bromo-2,5-difluorophenyl)-2,2-dichlorocyclopropane-1-carboxamido)-2-chloro-N-(2,4-difluorophenyl)benzamide], the pest or weed control at 50 µg/cm2 in data set [1] (setting [9]) and in data set [2] (setting [10]) was 50 to 100% each time. The YFM entry in data set [3] (setting [11]) is reported as “A (80–100)”.

Take `Nc1c(F)ccc(NC(=O)c2cc(NC(=O)[C@H]3[C@H](c4cc(F)c(Cl)c(C(F)(F)F)c4)C3(Cl)Cl)ccc2Cl)c1F` (relative stereo) [F1167, trans-N-(3-Amino-2,4-difluorophenyl)-2-chloro-5-(2,2-dichloro-3-(4-chloro-3-fluoro-5-(trifluoromethyl)phenyl)cyclopropane-1-carboxamido)benzamide]: the pest or weed control at 50 µg/cm2 in data set [1] (setting [9]) and in data set [2] (setting [10]) was 50 to 100% throughout. In data set [3] (setting [11]), the YFM entry was “A (80–100)”.

With `CC1(C(=O)Nc2c(F)ccc(NC(=O)c3cc(NC(=O)[C@H]4[C@H](c5ccc(F)c(C(F)(F)F)c5)C4(Cl)Cl)ccc3Cl)c2F)CC1` [F1362, 2-Chloro-5-((1R,3R)-2,2-dichloro-3-(4-fluoro-3-(trifluoromethyl)phenyl)cyclopropane-1-carboxamido)-N-(2,4-difluoro-3-(1-methylcyclopropane-1-carboxamido)phenyl)benzamide], the pest or weed control at 50 µg/cm2 in data set [1] (setting [9]) and in data set [2] (setting [10]) was 50 to 100% throughout. Further, the YFM result in data set [3] (setting [11]) is “A (80–100)”.

Take `O=C(Nc1ccc(F)cc1F)c1cc(NC(=O)[C@H]2[C@H](c3cc(Br)cc(S(F)(F)(F)(F)F)c3)C2(Cl)Cl)ccc1Cl` (relative stereo) [F1031, trans-5-(3-(3-Bromo-5-(pentafluoro-λ^6-sulfanyl)phenyl)-2,2-dichlorocyclopropane-1-carboxamido)-2-chloro-N-(2,4-difluorophenyl)benzamide]: the pest or weed control at 50 µg/cm2 in data set [1] (setting [9]) and in data set [2] (setting [10]) was 50 to 100% in each case. In data set [3] (setting [11]), the YFM entry is reported as “A (80–100)”.

`C=C(F)c1c(F)ccc(NC(=O)c2cc(NC(=O)[C@H]3[C@H](c4cc(Cl)cc(Cl)c4)C3(Cl)Cl)ccc2Cl)c1F` (relative stereo) [F1321, trans-2-Chloro-5-(2,2-dichloro-3-(3,5-dichlorophenyl)cyclopropane-1-carboxamido)-N-(2,4-difluoro-3-(1-fluorovinyl)phenyl)benzamide]: the pest or weed control at 50 µg/cm2 in data set [1] (setting [9]) and in data set [2] (setting [10]) was 50 to 100% in each case. Moreover, in data set [3] (setting [11]), the YFM entry was “A (80–100)”.

On to `O=C(NN=CCC(F)(F)F)c1cc(NC(=O)[C@H]2[C@H](c3cc(Cl)cc(Cl)c3)C2(Cl)Cl)ccc1Cl` (relative stereo) [F3008, trans-2,2-Dichloro-N-(4-chloro-3-(2-(3,3,3-trifluoropropylidene)hydrazine-1-carbonyl)phenyl)-3-(3,5-dichlorophenyl)cyclopropane-1-carboxamide], for which the mortality at 50 µg/cm2 in data set [1] and in data set [2] was 50 to 100% throughout. In addition, the pest or weed control at 50 µg/cm2 in data set [1] (setting [4]) and in data set [2] (setting [5]) was 50 to 100% throughout. The YFM rating entry in data set [3] (Yellow Fever Mosquito) was “A (80–100)”. Besides, the “YFM % Control (or Mortality) rating” value in data set [3] is reported as “A (80–100)”.

Regarding `O=C(Nc1c(F)ccc(NC(=O)C(F)(F)F)c1F)c1cc(NC(=O)[C@H]2[C@H](c3cc(Cl)c(Cl)c(Cl)c3)C2(Cl)Cl)ccc1F` [F1554, 5-((1R,3R)-2,2-Dichloro-3-(3,4,5-trichlorophenyl)cyclopropane-1-carboxamido)-N-(2,6-difluoro-3-(2,2,2-trifluoroacetamido)phenyl)-2-fluorobenzamide], the pest or weed control at 50 µg/cm2 in data set [1] (setting [6]) and in data set [2] (setting [7]) was 50 to 100% each time. Besides, the YFM entry in data set [3] (setting [8]) is on record as “A (80–100)”.
